Source: patent publication US10195156B2, “Compounds and compositions for intracellular delivery of agents” (ModernaTX, Inc., priority 2015, dated 2019)

Tests used:
[1] = Lipid clearance: % dose remaining in mouse liver 6 h and 24 h after administration of nanoparticle compositions; type: in vivo, CD-1 mice; conditions: CD-1 mice
Description: In contrast, hEPO expression in rats induced by administration of a nanoparticle composition including a compound according to one of formulae (I), (Ia1)-(Ia6), (Ib), (II), (IIa), (III), and (IIIa) was substantially […] than that measured for MC3. […] Table 7c and 7d show additional protein expressions and clearance data from compositions with various compounds disclosed herein as compared to with MC3.

[2] = pKa of nanoparticle compositions; type: physicochemical; conditions: Table 1
[3] = test system: modified luciferase expression; test: Expression of Luc in different organs (liver, lung, spleen, femur) 6 hours after intravenous administration; type: in vivo; conditions: Table 3, mice, i.v., 0.5 mpk
Method: The efficacy of the nanoparticle compositions presented in Tables 1, 1a, 17-1, 19-1, 20-1 and 21-1 was further evaluated by measuring the expression of modified luciferase in the liver, lung, spleen, and femur upon administration of a given composition. Formulations were administered intravenously to mice (n=3) at a dosage of 0.5 mpk and bioluminescence measured after 6 hours. The standard MC3 formulation and a PBS control were also tested.

[4] = Encapsulation efficiency of RNA (QUANT-IT RIBOGREEN RNA assay); type: physicochemical; conditions: for EE (%): Table 1
Procedure, shortened: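 RiboGreen fluorescence (ex ~480, em ~520 nm) measured after 15 min at 37 °C on samples at ~5 μg/mL in TE, pH 7.5, ± 2% Triton X-100 solution. After blank subtraction, free RNA is given as intact-sample signal divided by disrupted-sample signal.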

[5] = Particle size and polydispersity index of nanoparticle compositions (Zetasizer Nano ZS); type: physicochemical; conditions: for PDI / Size (nm): Table 1
Procedure, shortened: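 Zetasizer Nano ZS; samples in 1×PBS; read-out: particle size plus polydispersity index.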

[6] = test system: luciferase (Luc) mRNA expression; test: Expression of Luc induced by sample formulations, whole-body bioluminescence after intravenous administration; type: in vivo; conditions: mice, i.v., 0.5 mg/kg; for Total Flux 6 hours / Total Flux 3 hours / Total Flux 24 hours: Table 2
Procedure, shortened: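 Read-out is whole-body bioluminescence at 3, 6 and 24 h after a single intravenous dose of 0.5 mg/kg Luc mRNA in nanoparticle formulations. Groups of n=6 mice; PBS and standard MC3 formulation as references.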

[7] = test system: IL-6; test: Cytokine production induced by sample formulations: IL-6; type: in vivo; conditions: Table 4; mice, i.v., 0.5 mpk, 6 hours; in pg/mL (unit assumed)
Procedure, shortened: (§1)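 Cytokine levels were quantified at 6 hours in mice given the nanoparticle compositions i.v. at 0.5 mpk. MC3 standard formulation and PBS served as comparators.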

[8] = test system: IP-10; test: Cytokine production induced by sample formulations: IP-10; type: in vivo; conditions: mice, i.v., 0.5 mpk, 6 hours; for IP-10: Table 4, in pg/mL (unit assumed)
Procedure, shortened: as §1

[9] = rows without footnote mark (lipid:DOPE:cholesterol:PEG-DMG 40:20:38.5:1.5, Luc mRNA; MC3 standard formulation)
[10] = comparison amongst compositions
[11] = * lipid:DSPC:Chol:PEG-DMG 50:10:38.5:1.5

SMILES	% Dose remaining 6 h CD-1 mice [1] [%]	% Dose remaining 24 h CD-1 mice [1] [%]	pKa ([2]; rows without footnote mark)	Total Flux Liver [3]	Total Flux Spleen [3]	EE (%) ([4]; rows without footnote mark)	PDI ([5]; rows without footnote mark)	Size (nm) [5, 9] [nm]	Total Flux 6 hours [6]	also measured
CCCCCCCCCN(CCCCCCCCC)CCN(CCCCCCCCC)CC(=O)N1CC2CC1CN2C(=O)CN(CCCCCCCCC)CCCCCCCCC (centres unmarked) [Compound 42, 2-(Dinonylamino)-1-(5-(N-(2-(dinonylamino)ethyl)-N-nonylglycyl)-2,5-diazabicyclo[2.2.1]heptan-2-yl)ethan-1-one]	58	53	6.77	5.53E+09	2.29E+08	97.1	0.190	116.4	4.99E+10	–
CCCCCCCCCN(CCCCCCCCC)CCN(CCCCCCCCC)CCC1CCN(C(=O)CN(CCCCCCCCC)CCCCCCCCC)CC1 [Compound 50, 2-(Dinonylamino)-1-(4-(2-((2-(dinonylamino)ethyl)(nonyl)amino)ethyl)piperidin-1-yl)ethan-1-one]	56	47	5.55	2.14E+07	1.94E+05	98.7	0.190	65.6	1.48E+08	particle size, rank within the named table (in words) [5, 10]: smallest particles
CCCCCCCCCN(CCCCCCCCC)CCN(CCCCCCCCC)CC(=O)N1CCN(C(=O)CN(CCCCCCCCC)CCCCCCCC(=O)OC)CC1 [Compound 44, Methyl 8-((2-(4-(N-(2-(dinonylamino)ethyl)-N-nonylglycyl)piperazin-1-yl)-2-oxoethyl)(nonyl)amino)octanoate]	<1	<1	6.82	1.11E+09	1.19E+08	89.5	0.190	94.9	1.07E+10	–
CCCCCCCCCN(CCCCCCCC(=O)OC)CCN(CCCCCCCC(=O)OC)CC(=O)N1CCN(C(=O)CN(CCCCCCCCC)CCCCCCCCC)CC1 [Compound 48, Methyl 8-((2-(4-(dinonylglycyl)piperazin-1-yl)-2-oxoethyl)(2-((8-methoxy-8-oxooctyl)(nonyl)amino)ethyl)amino)octanoate]	<1	<1	6.99	1.04E+07	1.50E+07	79.3	0.099	111.4	1.05E+08	–
CCCCCCCCCN(CCCCCCCC(=O)OC)CCN(CCCCCCCCC)CC(=O)N1CCN(C(=O)CN(CCCCCCCCC)CCCCCCCCC)CC1 [Compound 46, Methyl 8-((2-((2-(4-(dinonylglycyl)piperazin-1-yl)-2-oxoethyl)(nonyl)amino)ethyl)(nonyl)amino)octanoate]	1	<1	6.77	3.84E+08	4.35E+07	97.5	0.160	81.8	5.26E+09	–
CCCCCCCCCCCCN(CCCCCCCCCCCC)CCN(CCCCCCCCCCCC)CC(=O)N1CC2CC1CN2C(=O)CN(CCCCCCCCC)CCCCCCCCC (centres unmarked) [Compound 43, 2-((2-(Didodecylamino)ethyl)(dodecyl)amino)-1-(5-(dinonylglycyl)-2,5-diazabicyclo[2.2.1]heptan-2-yl)ethan-1-one]	69	64	6.72	2.60E+08	4.52E+07	99.1	0.220	99.0	4.54E+09	–
CCCCCCCCCCCCCCN(CCCCCCCCCCCCCC)CC(=O)N1CCN(C(=O)CN(CCCCCCCCC)CCN(CCCCCCCCC)CCCCCCCCC)CC1 [Compound 51, 2-((2-(Dinonylamino)ethyl)(nonyl)amino)-1-(4-(ditetradecylglycyl)piperazin-1-yl)ethan-1-one]	54	41	6.44	3.55E+09	2.24E+07	98.4	0.190	76.6	6.70E+10	–
CCCCCCCCCN(CCCCCCCCC)CCC(=O)N1CCN(C(=O)CCN(CCCCCCCCC)CCN(CCCCCCCCC)CCCCCCCCC)CC1 [Compound 52, 3-(Dinonylamino)-1-(4-(3-((2-(dinonylamino)ethyl)(nonyl)amino)propanoyl)piperazin-1-yl)propan-1-one]	46	40	6.77	1.18E+10	8.74E+08	97.5	0.100	94.4	9.85E+10	–
CCCCCCCC/C=C\CCCCCCCCN(CCCCCCCC/C=C\CCCCCCCC)CCN1CCN(CCN(CCCCCCCCCCCC)CCN(CCCCCCCCCCCC)CCCCCCCCCCCC)CC1 [Compound 28, N^1-(2-(4-(2-(Di((Z)-octadec-9-en-1-yl)amino)ethyl)piperazin-1-yl)ethyl)-N^1,N^2,N^2-tridodecylethane-1,2-diamine]	–	–	6.04	8.10E+08	5.67E+06	80.2	0.099	87.4	7.28E+09	IL-6 [7]: 73; Total Flux Femur ([3]; femur): 1.16E+06; Total Flux Lung [3]: 5.73E+06; IP-10 [8]: 5364; Total Flux 3 hours [6]: 6.18E+09; Total Flux 24 hours ([6]; 24 hours): 4.02E+08
CCCCCCCCCN(CCCCCCCCC)CCN(CCCCCCCCC)CCN1CCNCC1 [Compound 36, N^1,N^1,N^2-Trinonyl-N^2-(2-(piperazin-1-yl)ethyl)ethane-1,2-diamine]	–	–	–	5.85E+04	1.24E+05	–	–	–	3.93E+05	IL-6 [7]: 41; pKa [2, 11]: 7.81; Total Flux Lung [3]: 2.74E+04; EE (%) [4, 11]: 100.2%; encapsulation efficiency, rank within the named table (in words) [4, 10]: highest; Size (nm) ([5]; * formulated with lipid:DSPC:Chol:PEG-DMG 50:10:38.5:1.5): 100.8 nm; PDI [5, 11]: 0.110; IP-10 [8]: 118; IP-10 induction, rank or comparison with IL-6 (in words) [8]: lowest IP-10 expression; Total Flux 3 hours [6]: 6.90E+05; Total Flux 24 hours ([6]; 24 hours): 1.68E+05; total flux after 24 hours, rank within the named table (in words) ([6]; 24 hours): lowest flux after 24 hours
